According to patent publication US11013235B2 (priority 2015, dated 2021):
Read-outs that look alike come from different tables or passages of the source.

Columns and labels:
Type in all cases: in vivo
Rhizoctonia solani [1] = test: Control of Rhizoctonia solani disease in tomato (Rs-SI); settings: 1 μM spraying every 24 hours for one week, water control 96
Rhizoctonia solani [2] = test: Control of Rhizoctonia solani disease in tobacco (Rs-Nt); settings: 1 μM spraying every 24 hours for one week, water control 87
Botrytis cinerea [3] = test: Control of Botrytis cinerea disease in tomato (Bc-SI); settings: 1 μM spraying every 24 hours for one week, water control 7.4
Method in brief: (§1)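 Treatment: spraying at 1 μM every 24 h for 1 week after pathogen inoculation, versus water. Scoring differed by pathogen: Botrytis by lesion diameter, Alternaria by fraction of leaves with symptoms, Nocardia by plant mortality.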

[4] = test system: Candidatus 'Liberibacter asiaticus'; settings: spraying every 15 days, 12 months after treatment, Citrus sinensis with HLB
Nocardia sp = test: Control of Nocardia sp disease in tobacco (N-Nt); settings: 1 μM spraying every 24 hours for one week, water control 58
Method in brief: as §1

Pratylenchus coffeae = test: Nematode control, nodules per plant: Pratylenchus coffeae; settings: 1 μM foliar application every 5 days, evaluation 35 days after, control 42
Method in brief: (§2)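 Foliar application at 1 μM; spraying every 5 days; n = 10 plants/treatment; nodules/plant scored day 35.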

Alternaria solani = test: Control of Alternaria solani disease in tomato (As-SI); settings: 1 μM spraying every 24 hours for one week, water control 68
Method in brief: as §1

Phytophthora parasitica = test: Control of Phytophthora parasitica disease in tobacco (Pp-Nt); settings: 1 μM spraying every 24 hours for one week, water control 91
Botrytis cinerea [5] = test: Control of Botrytis cinerea disease in tobacco (Bc-Nt); settings: 1 μM spraying every 24 hours for one week, water control 6.7
Method in brief: as §1

Meloidogyne incognita = test: Nematode control, nodules per plant: Meloidogyne incognita; settings: 1 μM foliar application every 5 days, evaluation 35 days after, control 34
Method in brief: as §2

Radopholus similis = test: Nematode control, nodules per plant: Radopholus similis; settings: 1 μM foliar application every 5 days, evaluation 35 days after, control 45
Method in brief: as §2

[6] = test system: Candidatus 'Liberibacter asiaticus'; settings: 1 μM spray, during 6 months, diseased citrus plants
Botrytis cinerea [7] = test: Control of Botrytis cinerea disease in Arabidopsis (Bc-At); settings: 1 μM spraying every 24 hours for one week, water control 8.7
Method in brief: as §1

| Structure (SMILES) | Rs-SI: percentage of mortality (Rhizoctonia solani [1]) [%] | Rs-Nt: percentage of mortality (Rhizoctonia solani [2]) [%] | Bc-SI: mean of the diameter of the lesion (Botrytis cinerea [3]) [mm] | Titers of the bacterium ([4]; 0.001 μM) [copies per reaction] | Titers of the bacterium ([4]; 0.01 μM) [copies per reaction] | Titers of the bacterium ([4]; 1 μM) [copies per reaction] | Titers of the bacterium ([4]; 5 μM) [copies per reaction] | Titers of the bacterium ([4]; 10 μM) [copies per reaction] | N-Nt: percentage of mortality (Nocardia sp) [%] | Pc: number of nodules per plant (Pratylenchus coffeae) | As-SI: percentage of leaves with the disease symptoms (Alternaria solani) [%] | Pp-Nt: percentage of mortality (Phytophthora parasitica) [%] | Bc-Nt: mean of the diameter of the lesion (Botrytis cinerea [5]) [mm] | Mi: number of nodules per plant (Meloidogyne incognita) | Rs: number of nodules per plant (Radopholus similis) | Levels of the bacterium, application once a month compared to twice a month [6] | Bacterial reduction ([6]; once and twice a month) | Bc-At: mean of the diameter of the lesion (Botrytis cinerea [7]) [mm] |
| --- | --- | --- | --- | --- | --- | --- | --- | --- | --- | --- | --- | --- | --- | --- | --- | --- | --- | --- |
| O=C(CCc1cc2cc3c(-c4ccccc4)coc3cc2oc1=O)NCC(O)CO (stereo not shown) [IB, N-(2,3-dihydroxypropyl)-3-{2-oxo-6-phenyl-2H-furo[3,2-g]chromen-3-yl}propanamide] | 2 | 3 | 1.6 | 598 | 15 | 0 | 98 | 9751 | 1 | 13 | 2 | 2 | 2.0 | 3 | 24 | reduced significantly | bacterial reduction was observed in both tested variants | 1.1 |
| O=C(CC1COc2ccc(C(=O)Nn3cccc3)cc2N1)NC(CO)CO (stereo not shown) [VK, 3-{[(1,3-dihydroxypropan-2-yl)carbamoyl]methyl}-N-(1H-pyrrol-1-yl)-3,4-dihydro-2H-1,4-benzoxazine-6-carboxamide] | 0 | 0 | 1.6 | 435 | 0 | 0 | 45 | 2547 | 0 | 0 | 7 | 0 | 2.0 | 0 | 0 |  |  | 1.1 |
